Reference: ChEMBL document CHEMBL1759842, “Discovery of non-glucoside SGLT2 inhibitors” (Bioorg Med Chem Lett, 2011)

Experiments:
Format in all cases: cell-based
[1] = biological target: T1, SGLT1 protein (Mus musculus, UniProt Q9QXI6); assay: Inhibition of mouse SGLT1 expressed in CHO cells assessed as inhibition of [14C]-alpha-methyl-D-glucopyranoside transport after 60 mins by scintillation counting
T1 sequence (Q9QXI6 whole entry): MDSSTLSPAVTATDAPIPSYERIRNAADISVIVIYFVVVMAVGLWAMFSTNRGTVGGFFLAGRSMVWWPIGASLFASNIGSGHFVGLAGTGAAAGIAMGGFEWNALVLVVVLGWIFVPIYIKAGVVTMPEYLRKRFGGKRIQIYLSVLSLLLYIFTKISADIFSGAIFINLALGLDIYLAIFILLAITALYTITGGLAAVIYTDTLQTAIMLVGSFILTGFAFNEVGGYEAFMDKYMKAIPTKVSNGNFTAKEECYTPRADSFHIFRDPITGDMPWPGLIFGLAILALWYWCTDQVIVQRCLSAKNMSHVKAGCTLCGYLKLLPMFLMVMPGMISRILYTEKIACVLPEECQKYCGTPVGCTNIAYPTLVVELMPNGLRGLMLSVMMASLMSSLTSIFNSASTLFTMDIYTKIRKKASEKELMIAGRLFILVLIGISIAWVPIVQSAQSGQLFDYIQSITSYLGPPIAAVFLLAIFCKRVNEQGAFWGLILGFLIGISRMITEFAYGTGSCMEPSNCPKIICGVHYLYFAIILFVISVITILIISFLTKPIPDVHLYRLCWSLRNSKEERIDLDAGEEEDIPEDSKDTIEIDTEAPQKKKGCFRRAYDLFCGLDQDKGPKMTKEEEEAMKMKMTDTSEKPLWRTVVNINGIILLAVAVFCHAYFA

[2] = biological target: T2, Sodium/glucose cotransporter 2 (Rattus norvegicus, UniProt P53792); assay: Inhibition of rat SGLT2 expressed in CHO cells assessed as inhibition of [14C]-alpha-methyl-D-glucopyranoside transport after 60 mins by scintillation counting
T2 sequence (P53792 whole entry): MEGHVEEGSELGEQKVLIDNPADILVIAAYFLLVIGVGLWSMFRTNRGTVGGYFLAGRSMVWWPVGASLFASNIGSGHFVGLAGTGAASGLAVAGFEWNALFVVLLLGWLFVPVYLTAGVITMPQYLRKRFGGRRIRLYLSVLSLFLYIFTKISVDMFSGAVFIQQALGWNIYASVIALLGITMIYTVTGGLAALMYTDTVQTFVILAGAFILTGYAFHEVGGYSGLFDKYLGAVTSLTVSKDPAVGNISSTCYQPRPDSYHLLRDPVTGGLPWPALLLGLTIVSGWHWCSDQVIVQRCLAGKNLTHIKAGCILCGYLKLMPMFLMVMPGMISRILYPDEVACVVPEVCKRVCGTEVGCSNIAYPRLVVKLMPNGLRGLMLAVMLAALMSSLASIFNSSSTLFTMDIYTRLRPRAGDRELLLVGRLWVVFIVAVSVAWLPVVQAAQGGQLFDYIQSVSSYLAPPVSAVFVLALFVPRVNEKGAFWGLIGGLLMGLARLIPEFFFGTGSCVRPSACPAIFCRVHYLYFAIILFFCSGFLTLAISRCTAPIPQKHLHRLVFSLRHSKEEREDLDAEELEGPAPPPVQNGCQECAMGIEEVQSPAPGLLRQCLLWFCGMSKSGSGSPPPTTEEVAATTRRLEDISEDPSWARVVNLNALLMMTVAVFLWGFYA

[3] = biological target: T3, Sodium/glucose cotransporter 2 (Mus musculus, UniProt Q923I7); assay: Inhibition of mouse SGLT2 expressed in CHO cells assessed as inhibition of [14C]-alpha-methyl-D-glucopyranoside transport after 60 mins by scintillation counting
T3 sequence (Q923I7 whole entry): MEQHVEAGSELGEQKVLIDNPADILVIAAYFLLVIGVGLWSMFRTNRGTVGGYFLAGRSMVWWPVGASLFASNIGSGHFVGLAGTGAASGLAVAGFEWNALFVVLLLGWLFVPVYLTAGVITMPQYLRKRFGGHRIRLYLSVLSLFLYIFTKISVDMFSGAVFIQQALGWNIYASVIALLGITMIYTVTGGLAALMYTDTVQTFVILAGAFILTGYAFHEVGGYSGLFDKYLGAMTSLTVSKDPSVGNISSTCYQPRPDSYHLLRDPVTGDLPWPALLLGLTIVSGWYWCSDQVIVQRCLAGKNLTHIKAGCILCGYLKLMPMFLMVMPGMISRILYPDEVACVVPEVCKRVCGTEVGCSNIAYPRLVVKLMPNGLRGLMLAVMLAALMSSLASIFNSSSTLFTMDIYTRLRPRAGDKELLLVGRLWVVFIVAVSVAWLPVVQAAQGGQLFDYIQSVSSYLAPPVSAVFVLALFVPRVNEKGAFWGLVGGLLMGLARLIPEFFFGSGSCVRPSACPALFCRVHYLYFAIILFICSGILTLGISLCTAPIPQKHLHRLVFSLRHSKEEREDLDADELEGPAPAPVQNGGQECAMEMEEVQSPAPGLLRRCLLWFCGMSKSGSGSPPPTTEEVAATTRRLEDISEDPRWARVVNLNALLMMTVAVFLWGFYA

[4] = biological target: T4, Sodium/glucose cotransporter 2 (Homo sapiens, UniProt P31639); assay: Inhibition of human SGLT2 expressed in CHO cells assessed as inhibition of [14C]-alpha-methyl-D-glucopyranoside transport after 60 mins by scintillation counting
T4 sequence (P31639 whole entry): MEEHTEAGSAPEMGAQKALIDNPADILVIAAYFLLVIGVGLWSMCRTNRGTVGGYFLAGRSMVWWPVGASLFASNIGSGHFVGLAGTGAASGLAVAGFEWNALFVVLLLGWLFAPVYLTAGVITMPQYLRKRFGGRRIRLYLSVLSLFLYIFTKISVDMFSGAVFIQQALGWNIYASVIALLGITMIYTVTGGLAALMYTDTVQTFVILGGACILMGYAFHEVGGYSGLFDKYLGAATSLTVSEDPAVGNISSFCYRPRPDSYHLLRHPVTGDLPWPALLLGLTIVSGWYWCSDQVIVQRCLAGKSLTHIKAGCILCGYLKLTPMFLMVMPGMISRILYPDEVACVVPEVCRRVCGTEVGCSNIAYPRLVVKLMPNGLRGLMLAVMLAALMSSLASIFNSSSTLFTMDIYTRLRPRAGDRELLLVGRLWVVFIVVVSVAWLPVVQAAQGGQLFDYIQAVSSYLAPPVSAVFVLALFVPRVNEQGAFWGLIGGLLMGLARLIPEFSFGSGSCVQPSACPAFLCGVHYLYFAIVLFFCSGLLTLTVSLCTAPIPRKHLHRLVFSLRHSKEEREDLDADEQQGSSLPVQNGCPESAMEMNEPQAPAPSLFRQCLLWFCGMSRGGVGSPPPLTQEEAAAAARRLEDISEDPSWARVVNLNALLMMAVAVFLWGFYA

IC50 [1]: 3000 nM
IC50 [2]: 400 nM
IC50 [3]: 1200 nM
IC50 [4]: 1400 nM
SMILES: Cn1c(CN2C(=O)CSc3ccc(C(F)(F)F)cc32)nnc1SCc1ccc(Cl)cc1
